Measured values published in US20150290232A1, “DRUG COMPOSITION FOR TREATING TUMORS AND APPLICATION THEREOF” (priority 2012, published 2015).
Read-outs that look alike come from different tables or passages of the source.

Experiments:
[1] = tested on: leukemia mice; settings: cited from earlier work
[2] = Example 5: body weight of tumor-bearing nude mice; type: in vivo, BALB/c-nu nude mice
Procedure: Under sterile conditions, the above tumor cells were collected in the logarithmic growth phase. A549 was injected by subcutaneous injection in an amount of 6×10 6/0.2 mL/nude mice (cell viability>90%) into the right subaxillary of the nude mice, thus establishing transplated tumor models of lung cancer in nude mice. The mice were administered from the second day after the inoculation. […] Each mouse was intragastrically administered in 0.4 ml each time and 2 times a day, at 8:00, and 14:00. The administrations were successive for 14 days. The day before administration was deemed as Day 0 and the body weight and tumor size of the mice were determined every 5 days to produce a dynamic plot on body weight and tumor growth. On Day 20, the mice were sacrificed and the tumors were taken out and weighed. The tumor inhibition rate (%) was calculated after the effect of the medicament based on a tumor inhibition rate of the control group being zero.
(§1) The values determined were presented as mean±standard error (Mean±SD). The experimental data for each group was analyzed with One-way ANOVA method in the SPSS 18.0 statistical software, and p<0.05 means that the differences are statistically significant.

[3] = tested on: acute lymphoblastic leukemia (ANLL); settings: initial treatment of ANLL; cited from earlier work
[4] = tested on: leukemic cell lines L1210 and P388; settings: mice inoculated with L1210 and P388, 0.5-5 mg/kg/day for 10 consecutive days; cited from earlier work
[5] = tested on: mouse leukemia P388 and human gastric cancer cell line SGC-7901; settings: 0.01 μg/ml, in vitro; cited from earlier work
[6] = rats, cited from earlier work
[7] = tested on: Jurkat cells (acute lymphoblastic leukemia); experiment: MTT cell viability, leukemia cells, TTD and Acla A alone and combined; type: cell-based; settings: Homo sapiens, 72 h; for IC50: read-out: concentration (IC50 value of 72 hours)
Procedure: (§2) Well-growing leukemia cells were obtained and inoculated into wells of a 96-well cell culture plate at 5000 cells/well. Individual compounds of various concentrations were added, mixed uniformly, and incubated (5% CO2) at 37° C. for 72 hours. Then the cell viability was determined by the MTT method.
(§3) b) Determine the inhibitory effects of TTD in combination with Ada A on leukemia cells in vitro. The pretreatment of the cells was the same as in a). The control group was not treated with the compound while administered. […] After 72 hours of incubation, the MTT method was used for the determination of cell viability. The cell viability of the control group was set to 100% in this experiment, and the TTD, Ada A single drug and combined effects on cell viability (%) were calculated.

[8] = tested on: kasumi-1 cells (acute myeloid leukemia M2 type); experiment: as above; type: cell-based; settings: Homo sapiens; for IC50: read-out: concentration (IC50 value of 72 hours)
Procedure: as §2, §3

[9] = tested on: k562/ADR leukemia cells (drug-resistant chronic myeloid leukemia); experiment: as above; type: cell-based; settings: Homo sapiens, 72 h; for IC50: read-out: concentration (IC50 value of 72 hours)
Procedure: as §2, §3

[10] = tested on: A549 transplanted tumor (human non-small cell lung cancer cell line); experiment: Example 5: Acla A on A549 transplanted tumor in nude mice; type: in vivo, BALB/c-nu nude mice
Procedure: Under sterile conditions, the above tumor cells were collected in the logarithmic growth phase. A549 was injected by subcutaneous injection in an amount of 6×10 6/0.2 mL/nude mice (cell viability>90%) into the right subaxillary of the nude mice, thus establishing transplated tumor models of lung cancer in nude mice. The mice were administered from the second day after the inoculation. The experimental group was intragastrically administered at the experimentally designed amount, the negative control group was intragastrically administered with sterile water, and the positive control group is intragastrically administered with Jef. Each mouse was intragastrically administered in 0.4 ml each time and 2 times a day, at 8:00, and 14:00. The administrations were successive for 14 days. The day before administration was deemed as Day 0 and the body weight and tumor size of the mice were determined every 5 days to produce a dynamic plot on body weight and tumor growth. On Day 20, the mice were sacrificed and the tumors were taken out and weighed. The tumor inhibition rate (%) was calculated after the effect of the medicament based on a tumor inhibition rate of the control group being zero.
as §1

[11] = tested on: A549 transplanted tumor (human non-small cell lung cancer cell line); experiment: Example 4: TTD on A549 transplanted tumor in nude mice; type: in vivo, BALB/c-nu nude mice; settings: A549, TTD 50 mg/kg/time intragastric, 3 times a day, 10 days, Day 24; for tumor inhibition rate: control = 0
Procedure: (§4) Under sterile conditions, the above tumor cells were collected in the logarithmic growth phase. A549 was injected by subcutaneous injection in an amount of 1×10 7/0 2 mL/nude mice (cell viability>90%) into the right subaxillary of the nude mice, and Hep G2 was injected by subcutaneous injection in an amount of 1×10^7/0.2 mL/nude mice (cell viability>90%) into the left subaxillary of the nude mice thus establishing transplated tumor models of lung cancer and liver cancer respectively in nude mice. The administration was carried out from the second day after the inoculation. The experimental group was intragastrically administered at the experimentally designed amount, the negative control group is intragastrically administered with sterile water, and the positive control group was intragastrically administered with Jef. Each mouse was intragastrically administered in 0.4 ml each time and 3 times a day, at 8:00, 14:00 and 20:00. The administrations were successive for 10 days. The day before administration was deemed as Day 0 and the body weight and tumor size of the mice were determined every 5 days to produce a dynamic plot on body weight and tumor growth. On Day 24, the mice were sacrificed and the tumors were taken out and weighed. The tumor inhibition rate (%) was calculated after the effect of the medicament based on a tumor inhibition rate of the control group being zero.
as §1

[12] = Example 4: body weight of tumor-bearing nude mice; type: in vivo, BALB/c-nu nude mice
Procedure: as §4, §1

[13] = tested on: Hep G2 transplanted tumor (human hepatoma carcinoma cell); experiment: Example 4: TTD on Hep G2 transplanted tumor in nude mice; type: in vivo, BALB/c-nu nude mice; settings: Hep G2, TTD 50 mg/kg/time intragastric, 3 times a day, 10 days, Day 24
Procedure: as §4, with “The experimental group was intragastrically administered at the experimentally designed amount, the negative control group is intragastrically administered with sterile water, and the positive control group was intragastrically administered with Jef. Each mouse was intragastrically administered in 0.4 ml each time and 3 times a day, at 8:00, 14:00 and 20:00. The administrations were successive for 10 days.” left out, “On Day 24, the mice were sacrificed and the tumors were taken out and weighed.” left out
as §1

Question: Which results are given for CC[C@@]1(O)C[C@H](O[C@H]2C[C@H](N(C)C)[C@H](O[C@H]3C[C@H](O)[C@H](O[C@H]4CCC(=O)[C@H](C)O4)[C@H](C)O3)[C@H](C)O2)c2c(cc3c(c2O)C(=O)c2c(O)cccc2C3=O)[C@H]1C(=O)OC [Acla A, aclarubicin A]?
Answer: prolonging the lifetime of the mice [1]: 143%; body weight, Final ([2]; Acla A 1 mg/kg/time intragastric, 2 times a day, 14 days, Day 20, Mean ± SD, n=3): 18.5 ± 1.10 g; body weight, Initial ([2]; Acla A 1 mg/kg/time intragastric, 2 times a day, 14 days, Mean ± SD, n=3): 21.0 ± 0.23 g; dynamic variation of the body weight (in words) ([2]; Acla A 1 mg/kg/time, during administration, recovered gradually after termination): partial reduction in the body weight; complete remission rate (CR) [3]: up to 70%; survival rate increased, compared with mice without antibiotics injection [4]: 150%; cloning formation inhibited [5]: 65.4%; half-life t1/2 ([6]; intravenous injection): 16 to 21 h; bioavailability ([6]; oral administration): 35%; biological half-life t1/2 ([6]; oral administration): 36.5 h; viability at 0.029 µg/mL ([7]; read-out: CV (cell viability)): 58%; IC50 [7]: 0.029 µg/mL; viability at 0.04 µg/mL ([8]; Kasumi 1, 72 h, read-out: CV (cell viability)): 52.5%; IC50 ([8]; Kasumi 1, 72 h): 0.04 µg/mL; viability at 0.09 µg/mL ([9]; K562/Adr, read-out: CV (cell viability)): 49.1%; IC50 ([9]; K562/Adr): 0.09 µg/mL; inhibitory effect on lung cancer transplanted tumor (in words) ([10]; A549, Acla A 1 mg/kg/time): did not exhibit good inhibitory effect; Mass of tumor ([10]; A549, Acla A 1 mg/kg/time intragastric, 2 times a day, 14 days, Day 20, Mean ± SD): 0.50 ± 0.19 g; tumor inhibition rate ([10]; A549, Acla A 1 mg/kg/time intragastric, 2 times a day, 14 days, Day 20, control = 0): −51.52%

Question: Which Mass of tumor ([11]; Mean ± SD) does the source give for COc1ccc2cc1Oc1ccc(cc1)C[C@H]1c3cc(c(OC)cc3CCN1C)Oc1c(OC)c(OC)cc3c1[C@H](C2)N(C)CC3 [TTD, tetrandrine] here?
Answer: 0.23 ± 0.35 g

Question: And the tumor inhibition rate [11]?
Answer: up to 38%

Question: And the tumor inhibition rate ([11]; listed as TTD50)?
Answer: 38.02%

Question: What about the “body weight, Final” value ([12]; TTD 50 mg/kg/time intragastric, 3 times a day, 10 days, Day 24, Mean ± SD, n=3) of the same molecule?
Answer: 20.6 ± 1.74 g

Question: What about the “body weight, Initial” value ([12]; TTD 50 mg/kg/time intragastric, 3 times a day, 10 days, Mean ± SD, n=3) of the same molecule?
Answer: 21.1 ± 0.25 g

Question: What about the “dynamic variation of the body weight (in words)” value ([12]; TTD 50 mg/kg/time, during administration, recovered gradually after termination) of the same molecule?
Answer: partial reduction in the body weight

Question: And the Mass of tumor ([13]; Mean ± SD)?
Answer: 0.53 ± 0.32 g

Question: And the tumor inhibition rate ([13]; control = 0)?
Answer: −33.36%

Question: What about the viability at 1.69 µg/mL ([7]; TTD 1.69 μg/mL, MTT, control = 100%, read-out: CV (cell viability)) of the same molecule?
Answer: 52.3%

Question: What about the IC50 ([7]; single compound, MTT) of the same molecule?
Answer: 1.69 µg/mL

Question: And the viability at 2 µg/mL ([8]; kasumi-1, TTD 2 μg/mL, 72 h, MTT, control = 100%, read-out: CV (cell viability))?
Answer: 51.7%

Question: What about the IC50 ([8]; kasumi-1, single compound, 72 h, MTT) of the same molecule?
Answer: 2 µg/mL

Question: And the viability at 0.6 µg/mL ([9]; k562/ADR, TTD 0.6 μg/mL, MTT, control = 100%, read-out: CV (cell viability))?
Answer: 48%

Question: What about the IC50 ([9]; k562/ADR, single compound, MTT) of the same molecule?
Answer: 0.6 µg/mL
